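Cells were grown in 96-well plates and exposed to each compound for 48 hours at five concentrations; endpoints were interpolated linearly between bracketing concentrations, or set to the highest concentration if not reached. TGI is the concentration that stops growth completely.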
Legend:
Test in all cases: NCI tumour cell line growth inhibition, 48 h
MOLT-4 leukemia = system: MOLT-4 leukemia
CAKI-1 renal = system: CAKI-1 renal
KM12 colon = system: KM12 colon
RPMI-8226 leukemia = system: RPMI-8226 leukemia
HOP-92 NSCLC = system: HOP-92 NSCLC
NCI-H460 lung = system: NCI-H460 lung
TK-10 renal = system: TK-10 renal
PC-3 prostate = system: PC-3 prostate
DMS 114 small cell lung = system: DMS 114 small cell lung
DMS 273 small cell lung = system: DMS 273 small cell lung
KM20L2 colon = system: KM20L2 colon
DLD-1 colon = system: DLD-1 colon
XF 498 CNS = system: XF 498 CNS

Row | SMILES | TGI (MOLT-4 leukemia) [µM] | TGI (CAKI-1 renal) [µM] | TGI (KM12 colon) [µM] | TGI (RPMI-8226 leukemia) [µM] | TGI (HOP-92 NSCLC) [µM] | TGI (NCI-H460 lung) [µM] | TGI (TK-10 renal) [µM] | TGI (PC-3 prostate) [µM] | TGI (DMS 114 small cell lung) [µM] | TGI (DMS 273 small cell lung) [µM] | TGI (KM20L2 colon) [µM] | TGI (DLD-1 colon) [µM] | TGI (XF 498 CNS) [µM]
1 | COc1ccc2c(c1)C(N)=C(c1ccccc1)C2=O | > 100 | > 100 | > 100 | > 100 | > 100 | > 100 | > 100 | > 100 | – | – | – | – | –
2 | CCOC(=O)C1(C(=O)OCC)[C@H](c2ccccc2)C2=NO[C@@H]3CCC[C@H]1[C@H]23 | > 100 | > 100 | > 100 | > 100 | > 100 | > 100 | > 100 | > 100 | – | – | – | – | –
3 | C/C(=N\NC(=S)N1CCCCC1)c1cccc(C)n1 | > 100 | 12.4 | 17.5 | > 100 | 11.3 | 0.334 | 21.3 | 19.7 | – | – | – | – | –
4 | Cc1ccc(C(=O)O)c(CC2Cc3c(C)cccc3C2=O)c1 (stereo not given) | > 100 | > 100 | > 100 | > 100 | > 100 | > 100 | > 100 | > 100 | – | – | – | – | –
5 | Nc1nc(-c2ccccc2N=NN2CCCC2)nc2ccccc12 | 3.52 | 18.5 | 7.36 | 6.46 | 21.3 | 17.9 | 14.5 | 15.4 | – | – | – | – | –
6 | C(=C\c1cccc(/C=C/c2ccccn2)n1)/c1ccccn1 | > 100 | > 100 | > 100 | > 100 | > 100 | > 100 | > 100 | > 100 | – | – | – | – | –
7 | COc1nc2c(c(=O)n1C)N[C@H]1[C@H](OC(C)=O)[C@@H](OC(C)=O)CO[C@H]1N2 | > 100 | > 100 | > 100 | > 100 | > 100 | > 100 | > 100 | > 100 | – | – | – | – | –
8 | N#CC(C#N)=C1C(C#N)=C(N)NC12OCCO2 | > 100 | > 100 | > 100 | > 100 | > 100 | > 100 | > 100 | > 100 | – | – | – | – | –
9 | COc1cc2c(cc1OCCCC(=O)Nc1cc(C(=O)Nc3cc(C(=O)Nc4cc(C(=O)NCCCN(C)C)n(C)n4)n(C)n3)n(C)n1)N=CC1CCCN1C2=O (stereo not given) | > 100 | 61.5 | 47 | > 100 | > 100 | > 100 | 40.7 | > 100 | – | – | – | – | –
10 | OCC1OC(n2cnc3cncnc32)C(O)C1O (stereo not given) | 5.29 | 2.68 | 6 | 7.95 | 4.21 | 1.49 | – | – | 2.57 | 2.38 | 5.17 | 1.82 | –
11 | O=C1NC(=O)/C(=C/c2ccc(S(=O)(=O)N/N=C/c3ccc(Cl)cc3)cc2)N1 | > 100 | > 100 | > 100 | > 100 | > 100 | > 100 | > 100 | > 100 | – | – | – | – | –
12 | CN(C)CCNC(=O)c1ccc(NCCCN(C)CCCNc2ccc3c(=O)n(CCN(C)C)c(=O)n4c5ccccc5c(=O)c2c34)c2c(=O)c3ccccc3[nH]c12 | 1.1 | 1.06 | 0.319 | 0.157 | 2.92 | 0.0296 | 0.687 | 0.249 | – | – | – | – | –
13 | Cc1cc(C)c(P2C(=C(O[Si](C(C)C)(C(C)C)C(C)C)C(C)(C)C)C2(c2ccccc2)c2ccccc2)c(C)c1 (stereo not given) | > 100 | > 100 | > 100 | > 100 | > 100 | > 100 | > 100 | > 100 | – | – | – | – | –
14 | COc1cc(/C=C/C(=O)c2c(=O)o[nH][n+]2-c2ccccc2)ccc1[O-] | 5.59 | 9.41 | 8.77 | 5.55 | 7.39 | 4.34 | 10.5 | 21.7 | – | – | – | – | –
15 | Clc1ccc(Cc2nc3ccccc3nc2-c2cccc(Br)c2)cc1 | 6.84 | 5.1 | 33.7 | 3.81 | 1.36 | 42.2 | 30.4 | 4.88 | – | – | – | – | –
16 | CCOP(=O)(OCC)C(Nc1cccc(F)c1)c1ccccc1 (stereo not given) | > 100 | > 100 | > 100 | > 100 | > 100 | > 100 | > 100 | > 100 | – | – | – | – | –
17 | Cc1ccc(S(=O)(=O)NNC(=O)c2cc(C)ccc2NC(=O)C23CC4CC(CC(C4)C2)C3)cc1 | > 100 | > 100 | > 100 | > 100 | 91.5 | > 100 | > 100 | > 100 | – | – | – | – | –
18 | O=C(CSCC(=O)N/N=C/c1cccs1)N/N=C/c1cccs1 | > 100 | > 100 | > 100 | > 100 | > 100 | > 100 | > 100 | > 100 | – | – | – | – | –
19 | Nc1cccc2c1C(=O)c1cccc(N)c1C2=O | > 100 | > 100 | > 100 | > 100 | > 100 | > 100 | > 100 | – | – | > 100 | > 100 | > 100 | 69.4
20 | Cc1ccc(C(C)(C)C[P+](C)(c2ccccc2)c2ccccc2)cc1 | 42.7 | > 69.2 | > 45.7 | 6.7 | 9.5 | > 100 | – | – | 35.6 | 23.8 | > 88.8 | > 100 | 12.9
21 | Cc1ccccc1-n1c(C)nc2c1C(=O)c1ccccc1C2=O | > 100 | > 100 | > 100 | – | – | > 100 | > 100 | – | 87 | > 100 | – | – | –
22 | CCNc1ccc2c(c1)Cc1ccccc1-2 | > 100 | > 100 | > 100 | > 100 | 82.4 | > 100 | > 100 | > 100 | – | – | – | – | –
23 | CC(C)=CCC[C@@H](C)C1=C(Nc2ccccc2Cl)C(O)=C(C)C(=O)C1=O | 25.1 | 16 | 17.7 | > 28.7 | 29.3 | > 100 | > 100 | > 100 | – | – | – | – | –
24 | CC[N+]1(C)CCC(O)(/C=C/c2ccc(OC)cc2)C(C(=O)/C=C/c2ccc(OC)cc2)C1 (stereo not given) | 4.94 | 3.93 | 16.8 | 1.04 | 34.5 | > 35.6 | 11.6 | 42.6 | – | – | – | – | –
25 | Cc1ccc(C(=O)N/N=C(\N=Nc2cccc(Cl)c2)c2ccc(N(CCC#N)CCC#N)cc2C)cc1 | > 100 | > 100 | > 100 | > 100 | > 100 | > 100 | > 100 | > 100 | – | – | – | – | –
26 | COc1cccc(CC(C)NCC(O)c2ccc(O)c(O)c2)c1 (stereo not given) | 51.7 | > 100 | > 100 | > 100 | > 100 | > 100 | > 100 | > 100 | – | – | – | – | –
27 | Nc1ncnc2c1ncn2C1CCC(COS(N)(=O)=O)C1 (stereo not given) | > 100 | > 100 | > 100 | > 100 | > 100 | > 100 | > 100 | > 100 | – | – | – | – | –
28 | COC(=O)C1CCC(=O)N1C(=O)Cc1ccc(OC)cc1 (stereo not given) | – | > 100 | > 100 | – | > 100 | > 100 | > 100 | – | > 100 | > 100 | > 100 | – | > 100
29 | Cc1nc2c3c(ncn2n1)Oc1c(c(-c2ccccc2)nn1-c1ccccc1)C3c1ccc(Cl)cc1 (stereo not given) | > 100 | > 100 | > 100 | > 100 | > 100 | > 100 | > 100 | > 100 | – | – | – | – | –

— PubChem BioAssay (NCI)
